# Where two headings read alike, the source gives them in different places.
# Tested on: cholesterol absorption
# Test: Inhibition of cholesterol absorption in rats fed 1% cholesterol:0.5% cholic acid diet
# Format: in vivo, male Sprague-Dawley rats
# Details: rat, 2 weeks; for response vs control in vivo at 0.003 % / response vs control in vivo at 0.01 % / response vs control in vivo at 0.001 % / response vs control in vivo at 0.03 %: po, 336 h; for response vs control in vivo at 0.01 %: dose .01% of the diet; for response vs control in vivo at 0.001 %: dose .001% of the diet; for response vs control in vivo at 0.03 %: dose .03% of the diet
# Description: Inhibition of cholesterol absorption was determined by feeding male Sprague-Dawley rats, weighing 150-170 g, a 1% cholesterol:0.5% cholic acid diet for 2 weeks. The diet also contained compounds being tested at a dose of 0.001, 0.003, 0.01, or 0.03% of the diet. Control rats were fed the same diet without any compound. At the end of the test, the rats were sacrificed by decapitation. Blood was collected, centrifuged at […] for 10 minutes at 4° C.; and the serum was then analyzed for cholesterol and triglycerides enzymatically by the method of Trinder, P., Analyst, 77, 321 (1952) on a Centrifichem 400 analyzer. Livers were removed, a 0.4 g sample was taken from the center of the large lobe, and the sample was subjected to saponification using 25% saturated potassium hydroxide in ethanol. The resulting neutral sterols were extracted with petroleum ether and the extract analyzed for cholesterol. The effectiveness of the compound in inhibiting cholesterol absorption was measured by the lowering of either serum cholesterol or liver cholesterol relative the values for control rats.
# Compounds which produced statistically significant inhibition of cholesterol absorption are considered to be active. Liver sterol (LS) and serum sterol (SS) values are expressed as a percentage of control values.
# [1] = dose .003% of the diet, read-out: LS (liver sterol), percentage of control values
# [2] = dose .003% of the diet, read-out: SS (serum sterol), percentage of control values
# [3] = read-out: LS (liver sterol), percentage of control values
# [4] = read-out: SS (serum sterol), percentage of control values
Compound,response vs control in vivo at 0.003 % [1] [%],response vs control in vivo at 0.003 % [2] [%],other results
"CC(C)CCCCN(Cc1ccc(CCC(C)C)cc1)C(=O)Nc1ccc(F)cc1F [1-(Isoheptyl)-1-[4-(isopentyl)benzyl]-3-(2,4-difluorophenyl)urea]",45,24,–
"CCCCCCCN(Cc1ccc(CCCCSC(C)C)cc1)C(=O)Nc1c(C)cc(Cl)cc1C [1-(n-Heptyl)-1-[4-(4-isopropylthiobutyl)benzyl]-3-(4-chloro-2,6-dimethylphenyl)urea]",–,–,response vs control in vivo at 0.01 % [3]: 45%; response vs control in vivo at 0.01 % [4]: 49%
"CCCCCCCN(Cc1ccc(CCSC(C)C)cc1)C(=O)Nc1c(C)cc(Cl)cc1C [1-(n-Heptyl)-1-[4-(2-isopropylthioethyl)benzyl]-3-(4-chloro-2,6-dimethylphenyl)urea]",51,49,–
"CCCCCCCN(Cc1ccc(OCCC(C)C)cc1)C(=O)Nc1ccc(F)cc1F [1-(n-Heptyl)-1-[4-(3-methylbutoxy)benzyl]-3-(2,4-difluorophenyl)urea]",–,–,response vs control in vivo at 0.01 % [3]: 32%; response vs control in vivo at 0.01 % [4]: 27%
"CCCCCCCN(Cc1ccc(OCCC(C)C)cc1)C(=O)Nc1ccc(F)cc1F [1-(n-Heptyl)-1-[4-(isopentyloxy)benzyl]-3-(2,4-difluorophenyl)urea]",–,–,response vs control in vivo at 0.001 % [3]: 61%; response vs control in vivo at 0.001 % [4]: 69%
"CCCCCCCN(Cc1ccc(C(C)CCCC(C)C)cc1)C(=O)Nc1ccc(F)cc1F (stereo not drawn) [1-(n-Heptyl)-1-[4-(1,5-dimethylhexyl)benzyl]-3-(2,4-difluorophenyl)urea]",–,–,response vs control in vivo at 0.001 % [3]: 88%; response vs control in vivo at 0.001 % [4]: 83%
"CCCCCCCN(Cc1ccc(CCCCSCC)cc1)C(=O)Nc1c(C)cc(Cl)cc1C [1-(n-Heptyl)-1-[4-(4-ethylthiobutyl)benzyl]-3-(4-chloro-2,6-dimethylphenyl)urea]",63,57,–
"CC(C)(C)CCN(Cc1ccc(Cl)cc1)C(=O)Nc1ccc(C(F)(F)F)cc1 [1-(3,3-Dimethylbutyl)-1-(4-chlorobenzyl)-3-(4-trifluoromethylphenyl)urea]",–,–,response vs control in vivo at 0.03 % [3]: 70%; response vs control in vivo at 0.03 % [4]: 85%
"1-(n-Heptyl)-1-[4-(1,5-dimethylhexyl)benzyl]-3-(2,4,6-trifluoromethylphenyl)urea",–,–,"LS (liver sterol), percentage of control values (dose .003% of the diet): 65 percentage of control values; SS (serum sterol), percentage of control values (dose .003% of the diet): 57 percentage of control values"
"CCCCCCCN(Cc1ccc(C2CCCC2)cc1)C(=O)Nc1ccc(F)cc1F [1-(n-Heptyl)-1-[4-(cyclopentyl)benzyl]-3-(2,4-difluorophenyl)urea]",82,80,–
"CCCCCCCN(Cc1ccc(C(C)CCCC(C)C)cc1)C(=O)Nc1c(C)cc(Cl)cc1C (stereo not drawn) [1-(n-Heptyl)-1-[4-(1,5-dimethylhexyl)benzyl]-3-(4-chloro-2,6-dimethylphenyl)urea]",–,–,response vs control in vivo at 0.001 % [3]: 100%; response vs control in vivo at 0.001 % [4]: 94%
"CCCCCCCN(Cc1ccc(CC(C)CCC)cc1)C(=O)Nc1c(F)cc(F)cc1F (stereo not drawn) [1-(n-Heptyl)-1-[4-(2-methylpentyl)benzyl]-3-(2,4,6-trifluorophenyl)urea]",–,–,response vs control in vivo at 0.001 % [3]: 75%; response vs control in vivo at 0.001 % [4]: 93%
"CCCCCCCN(Cc1ccc(CC(C)CCC)cc1)C(=O)Nc1c(C)cc(Cl)cc1C (stereo not drawn) [1-(n-Heptyl)-1-[4-(2-methylpentyl)benzyl]-3-(4-chloro-2,6-dimethylphenyl)urea]",–,–,response vs control in vivo at 0.001 % [3]: 56%; response vs control in vivo at 0.001 % [4]: 61%
"CCCCCCCN(Cc1ccc(C2CCCC2)cc1)C(=O)Nc1c(Cl)cc(Cl)cc1Cl [1-(n-Heptyl)-1-[4-(cyclopentyl)benzyl]-3-(4-chloro-2,6-dichlorophenyl)urea]",36,35,–
"CCCCCCCN(Cc1ccc(CC(C)(C)C)cc1)C(=O)Nc1ccc(F)cc1F [1-(n-Heptyl)-1-[4-(2,2-dimethylpropyl)phenylmethyl]-3-(2,4-difluorophenyl)urea]",–,–,response vs control in vivo at 0.01 % [3]: 51%; response vs control in vivo at 0.01 % [4]: 22%
"CCCCCCCN(Cc1ccc(CC2CCCC2)cc1)C(=O)Nc1c(C)cc(Cl)cc1C [1-(n-Heptyl)-1-[4-(cyclopentylmethyl)benzyl]-3-(4-chloro-2,6-dimethylphenyl)urea]",53,45,–
"CCCCCCCN(Cc1ccc(CC2CCCC2)cc1)C(=O)Nc1c(F)cc(F)cc1F [1-(n-Heptyl)-1-[4-(cyclopentylmethyl)benzyl]-3-(2,4,6-trifluorophenyl)urea]",50,62,–

Compound,response vs control in vivo at 0.003 % [1] [%],response vs control in vivo at 0.003 % [2] [%],other results
"CCCCCCCN(Cc1ccc(CCC(C)CC)cc1)C(=O)Nc1c(C)cc(Cl)cc1C (stereo not drawn) [1-(n-Heptyl)-1-[4-(3-methylpentyl)benzyl]-3-(4-chloro-2,6-dimethylphenyl)urea]",45,38,–
"CCCCCCCN(Cc1ccc(CCOC(C)=O)cc1)C(=O)Nc1ccc(F)cc1F [1-(n-Heptyl)-1-[4-(2-acetoxyethyl)benzyl]-3-(2,4-difluorophenyl)urea]",60,55,–
"Cc1cc(Cl)cc(C)c1NC(=O)N(CCCCC(C)C)Cc1ccc(CCC(C)C)cc1 [1-(Isoheptyl)-1-[4-(isopentyl)benzyl]-3-(4-chloro-2,6-dimethylphenyl)urea]",–,–,response vs control in vivo at 0.001 % [3]: 40%; response vs control in vivo at 0.001 % [4]: 40%
"CCCCc1ccc(CN(CCC(C)(C)C)C(=O)Nc2ccc(C(F)(F)F)cc2)cc1 [1-(3,3-Dimethylbutyl)-1-[4-(n-butyl)benzyl]-3-(4-trifluoromethylphenyl)urea]",–,–,response vs control in vivo at 0.03 % [3]: 86%; response vs control in vivo at 0.03 % [4]: 100%
"CCCCCCOc1ccc(CN(CCCC)C(=O)Nc2c(C)cc(C)cc2C)cc1 [1-(n-Butyl)-1-(4-hexyloxybenzyl)-3-(2,4-trimethylphenyl)urea]",–,–,response vs control in vivo at 0.03 % [3]: 15%; response vs control in vivo at 0.03 % [4]: 54%
"CCCCCCCN(Cc1ccc(CC2CCC2)cc1)C(=O)Nc1c(C)cc(Cl)cc1C [1-(n-Heptyl)-1-[4-(cyclobutylmethyl)benzyl]-3-(4-chloro-2,6-dimethylphenyl)urea]",–,–,response vs control in vivo at 0.001 % [3]: 69%; response vs control in vivo at 0.001 % [4]: 64%
"CCCCCCCN(Cc1ccc(CC(C)CCC)cc1)C(=O)Nc1ccc(F)cc1F (stereo not drawn) [1-(n-Heptyl)-1-[4-(2-methylpentyl)benzyl]-3-(2,4-difluorophenyl)urea]",72,53,–
"CCCCCCCN(Cc1ccc(CCCC(C)C)cc1)C(=O)Nc1ccc(F)cc1F [1-(n-Heptyl)-1-[4-(isohexyl)benzyl]-3-(2,4-difluorophenyl)urea]",53,45,–
"CCCCCCCN(Cc1ccc(CC(CC)CCCC)cc1)C(=O)Nc1ccc(F)cc1F (stereo not drawn) [1-(n-Heptyl)-1-[4-(2-ethylhexyl)benzyl]-3-(2,4-difluorophenyl)urea]",56,63,–
"CCCCCCCN(Cc1ccc(C2CCCC2)cc1)C(=O)Nc1c(F)cc(F)cc1F [1-(n-Heptyl)-1-[4-(cyclopentyl)benzyl]-3-(2,4,6-trifluorophenyl)urea]",–,–,response vs control in vivo at 0.001 % [3]: 58%; response vs control in vivo at 0.001 % [4]: 69%
"CCCCCCCN(Cc1ccc(CCO)cc1)C(=O)Nc1ccc(F)cc1F [1-(n-Heptyl)-1-[4-(2-hydroxyethyl)benzyl]-3-(2,4-difluorophenyl)urea]",59,52,–
"CCCCCCCN(Cc1ccc(CC(C)(C)C)cc1)C(=O)Nc1c(F)cc(F)cc1F [1-(n-Heptyl)-1-[4-(2,2-dimethylpropyl)phenylmethyl]-3-(2,4,6-trifluorophenyl)urea]",55,38,–
"CCCCCCCN(Cc1ccc(CCS(=O)(=O)C(C)C)cc1)C(=O)Nc1ccc(F)cc1F [1-(n-Heptyl)-1-[4-(2-isopropylsulfonylethyl)benzyl]-3-(2,4-difluorophenyl)urea]",68,94,–
"CCCCCCCN(Cc1ccc(CCS(=O)(=O)C(C)C)cc1)C(=O)Nc1c(C)cc(Cl)cc1C [1-(n-Heptyl)-1-[4-(2-isopropylsulfonylethyl)benzyl]-3-(4-chloro-2,6-dimethylphenyl)urea]",54,57,–
"CCCCCCCN(Cc1ccc(CC[S+]([O-])C(C)C)cc1)C(=O)Nc1c(C)cc(Cl)cc1C (stereo not drawn) [1-(n-Heptyl)-1-[4-(2-isopropylsulfinylethyl)benzyl]-3-(4-chloro-2,6-dimethylphenyl)urea]",54,45,–
"CCCCCCCN(Cc1ccc(CC(CC)CCCC)cc1)C(=O)Nc1c(C)cc(Cl)cc1C (stereo not drawn) [1-(n-Heptyl)-1-[4-(2-ethylhexyl)benzyl]-3-(4-chloro-2,6-dimethylphenyl)urea]",–,–,response vs control in vivo at 0.001 % [3]: 87%; response vs control in vivo at 0.001 % [4]: 83%

# Source: US4623662A, “Antiatherosclerotic ureas and thioureas” (American Cyanamid Company, priority 1985, dated 1986)
